# The supplement of paper PMC10307832
# Assays:
# Assay in all cases: relative viability (nuclei count vs DMSO), 5 days (fraction); higher = more cells survive
# [1] = test system: NCI-H1915
# Outline: (§1)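 After 5 days of treatment, lung cancer cells in 1536-well plates were fixed and stained in a single step (final 0.05% Triton X-100, 1% formaldehyde, 1 ug/ml Hoechst) and their nuclei counted on 4× images. Treatment had been applied by pin tool the day after seeding as one drug alone or as a fixed anchor-drug dose with five library-drug doses (not always all listed) in √10 steps. Relative viability is the nuclei count of treated wells divided by that of vehicle wells, and values are medians of duplicate plates.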
# [2] = test system: NCI-H596
# Outline: as §1
# [3] = test system: NCI-H2347
# Outline: as §1
# [4] = test system: LXF-289
# Outline: as §1
# [5] = test system: NCI-H661
# Outline: as §1
# [6] = test system: NCI-H441
# Outline: as §1
# [7] = test system: NCI-H3122
# Outline: as §1
# [8] = test system: SK-MES-1
# Outline: as §1
# [9] = test system: NCI-H1355
# Outline: as §1
# [10] = test system: NCI-H1755
# Outline: as §1
# [11] = test system: NCI-H1563
# Outline: as §1
# [12] = test system: NCI-H322M
# Outline: as §1
# [13] = test system: NCI-H727
# Outline: as §1
# [14] = test system: NCI-H460
# Outline: as §1
# [15] = test system: LCLC-103H
# Outline: as §1
# [16] = test system: NCI-H520
# Outline: as §1
# [17] = test system: PC-14
# Outline: as §1
# [18] = test system: NCI-H1651
# Outline: as §1
# [19] = test system: NCI-H650
# Outline: as §1
# [20] = test system: RERF-LC-KJ
# Outline: as §1
# [21] = test system: NCI-H1792
# Outline: as §1
smiles,measurement,setting,value
C[C@@H]1CN(CC(=O)Nc2ccc3c(c2)Cc2cccc(-c4cc(=O)cc(N5CCOCC5)o4)c2S3)C[C@H](C)O1 + C[C@]1(O)C[C@@H](c2nc(-c3ccc4ccc(-c5ccccc5)nc4c3)c3c(N)nccn32)C1 [Linsitinib] (partner 1 µM),relative viability,[1]; first compound 0.04 µM,1.05
same,relative viability,[1]; first compound 0.1265 µM,1.07
same,relative viability,[1]; first compound 0.4 µM,1.13
same,relative viability,[1]; first compound 4 µM,1.12
same,relative viability,[2]; first compound 0.04 µM,1.12
same,relative viability,[2]; first compound 0.1265 µM,1.15
same,relative viability,[2]; first compound 0.4 µM,0.922
same,relative viability,[2]; first compound 4 µM,1
same,relative viability,[3]; first compound 0.04 µM,0.883
same,relative viability,[3]; first compound 0.1265 µM,1.05
same,relative viability,[3]; first compound 0.4 µM,1.01
same,relative viability,[3]; first compound 4 µM,1.02
same,relative viability,[4]; first compound 0.04 µM,0.981
same,relative viability,[4]; first compound 0.1265 µM,0.983
same,relative viability,[4]; first compound 0.4 µM,1.02
same,relative viability,[4]; first compound 4 µM,0.933
same,relative viability,[5]; first compound 0.1265 µM,0.556
same,relative viability,[5]; first compound 0.4 µM,0.599
same,relative viability,[5]; first compound 4 µM,0.506
same,relative viability,[6]; first compound 0.04 µM,0.404
same,relative viability,[6]; first compound 0.1265 µM,0.573
same,relative viability,[6]; first compound 0.4 µM,0.536
same,relative viability,[6]; first compound 4 µM,0.433
same,relative viability,[7]; first compound 0.04 µM,1.07
same,relative viability,[7]; first compound 0.1265 µM,0.933
same,relative viability,[7]; first compound 0.4 µM,1.02
same,relative viability,[7]; first compound 4 µM,0.99
same,relative viability,[8]; first compound 0.04 µM,1.13
same,relative viability,[8]; first compound 0.1265 µM,1.06
same,relative viability,[8]; first compound 0.4 µM,1.02
same,relative viability,[8]; first compound 4 µM,0.836
same,relative viability,[9]; first compound 0.04 µM,0.857
same,relative viability,[9]; first compound 0.1265 µM,0.792
same,relative viability,[9]; first compound 0.4 µM,0.866
same,relative viability,[9]; first compound 4 µM,0.815
same,relative viability,[10]; first compound 0.04 µM,1.01
same,relative viability,[10]; first compound 0.1265 µM,0.913
same,relative viability,[10]; first compound 0.4 µM,0.955
same,relative viability,[10]; first compound 4 µM,0.941
same,relative viability,[11]; first compound 0.04 µM,1.17
same,relative viability,[11]; first compound 0.1265 µM,1.28
same,relative viability,[11]; first compound 0.4 µM,0.988
same,relative viability,[11]; first compound 4 µM,1.1
same,relative viability,[12]; first compound 0.04 µM,1.01
same,relative viability,[12]; first compound 0.1265 µM,0.847
same,relative viability,[12]; first compound 0.4 µM,0.857
same,relative viability,[12]; first compound 4 µM,0.79
same,relative viability,[13]; first compound 0.04 µM,0.38
same,relative viability,[13]; first compound 0.1265 µM,0.348
same,relative viability,[13]; first compound 0.4 µM,0.332
same,relative viability,[13]; first compound 4 µM,0.3
same,relative viability,[14]; first compound 0.04 µM,0.858
same,relative viability,[14]; first compound 0.1265 µM,0.726
same,relative viability,[14]; first compound 0.4 µM,0.682
same,relative viability,[14]; first compound 4 µM,0.371
same,relative viability,[15]; first compound 0.04 µM,1.09
same,relative viability,[15]; first compound 0.1265 µM,0.896
same,relative viability,[15]; first compound 0.4 µM,1.18
same,relative viability,[15]; first compound 4 µM,1.14
same,relative viability,[16]; first compound 0.04 µM,1.1
same,relative viability,[16]; first compound 0.1265 µM,0.83
same,relative viability,[16]; first compound 0.4 µM,0.748
same,relative viability,[16]; first compound 4 µM,0.837
same,relative viability,[17]; first compound 0.04 µM,0.963
same,relative viability,[17]; first compound 0.1265 µM,0.902
same,relative viability,[17]; first compound 0.4 µM,0.937
same,relative viability,[17]; first compound 4 µM,0.754
same,relative viability,[18]; first compound 0.04 µM,1.01
same,relative viability,[18]; first compound 0.1265 µM,0.944
same,relative viability,[18]; first compound 0.4 µM,0.757
same,relative viability,[18]; first compound 4 µM,0.96
same,relative viability,[19]; first compound 0.04 µM,0.85
same,relative viability,[19]; first compound 0.1265 µM,0.729
same,relative viability,[19]; first compound 0.4 µM,0.86
same,relative viability,[19]; first compound 4 µM,0.584
same,relative viability,[20]; first compound 0.04 µM,0.922
same,relative viability,[20]; first compound 0.1265 µM,0.907
same,relative viability,[20]; first compound 0.4 µM,0.91
same,relative viability,[20]; first compound 4 µM,0.774
same,relative viability,[21]; first compound 0.04 µM,0.503
same,relative viability,[21]; first compound 0.1265 µM,0.519
same,relative viability,[21]; first compound 0.4 µM,0.564
same,relative viability,[21]; first compound 4 µM,0.425
COc1cc(N2CCC(C(N)=O)CC2)ccc1Nc1nc(N)c(Cl)c(Nc2ccccc2S(=O)(=O)C(C)C)n1 [HG-5-88-01] + C[C@]1(O)C[C@@H](c2nc(-c3ccc4ccc(-c5ccccc5)nc4c3)c3c(N)nccn32)C1 [Linsitinib] (partner 1 µM),relative viability,[1]; first compound 0.04 µM,1.09
same,relative viability,[1]; first compound 0.1265 µM,1.11
same,relative viability,[1]; first compound 0.4 µM,1.14
same,relative viability,[1]; first compound 1.265 µM,1.15
same,relative viability,[1]; first compound 4 µM,0.674
same,relative viability,[2]; first compound 0.04 µM,1
same,relative viability,[2]; first compound 0.1265 µM,1.12
same,relative viability,[2]; first compound 0.4 µM,1.2
same,relative viability,[2]; first compound 1.265 µM,1.13
same,relative viability,[2]; first compound 4 µM,1.17
same,relative viability,[3]; first compound 0.04 µM,0.988
same,relative viability,[3]; first compound 0.1265 µM,0.933
same,relative viability,[3]; first compound 0.4 µM,1.1
same,relative viability,[3]; first compound 1.265 µM,0.959
same,relative viability,[3]; first compound 4 µM,1.03
same,relative viability,[4]; first compound 0.04 µM,0.94
same,relative viability,[4]; first compound 0.1265 µM,1
same,relative viability,[4]; first compound 0.4 µM,0.961
same,relative viability,[4]; first compound 1.265 µM,0.973
same,relative viability,[4]; first compound 4 µM,1.04
same,relative viability,[5]; first compound 0.04 µM,0.586
same,relative viability,[5]; first compound 0.1265 µM,0.624
same,relative viability,[5]; first compound 0.4 µM,0.682
same,relative viability,[5]; first compound 4 µM,0.669
same,relative viability,[6]; first compound 0.04 µM,0.662
same,relative viability,[6]; first compound 0.1265 µM,0.536
same,relative viability,[6]; first compound 0.4 µM,0.821
same,relative viability,[6]; first compound 1.265 µM,0.399
same,relative viability,[6]; first compound 4 µM,0.586
same,relative viability,[7]; first compound 0.04 µM,0.914
same,relative viability,[7]; first compound 0.1265 µM,0.379
same,relative viability,[7]; first compound 0.4 µM,0.197
same,relative viability,[7]; first compound 1.265 µM,0.2
same,relative viability,[7]; first compound 4 µM,0.226
same,relative viability,[8]; first compound 0.04 µM,1.02
same,relative viability,[8]; first compound 0.1265 µM,1.03
same,relative viability,[8]; first compound 0.4 µM,1.08
same,relative viability,[8]; first compound 1.265 µM,1.04
same,relative viability,[8]; first compound 4 µM,1.14
same,relative viability,[9]; first compound 0.04 µM,0.863
same,relative viability,[9]; first compound 0.1265 µM,0.85
same,relative viability,[9]; first compound 0.4 µM,0.864
same,relative viability,[9]; first compound 1.265 µM,0.705
same,relative viability,[9]; first compound 4 µM,0.767
same,relative viability,[10]; first compound 0.1265 µM,0.902
same,relative viability,[10]; first compound 0.4 µM,1.01
same,relative viability,[10]; first compound 1.265 µM,0.983
same,relative viability,[10]; first compound 4 µM,1.09
same,relative viability,[11]; first compound 0.04 µM,1.1
same,relative viability,[11]; first compound 0.1265 µM,1.17
same,relative viability,[11]; first compound 0.4 µM,1.23
same,relative viability,[11]; first compound 1.265 µM,1.21
same,relative viability,[11]; first compound 4 µM,1.21
same,relative viability,[12]; first compound 0.04 µM,0.892
same,relative viability,[12]; first compound 0.1265 µM,0.922
same,relative viability,[12]; first compound 0.4 µM,1.01
same,relative viability,[12]; first compound 1.265 µM,0.657
same,relative viability,[12]; first compound 4 µM,0.858
same,relative viability,[13]; first compound 0.04 µM,0.337
same,relative viability,[13]; first compound 0.1265 µM,0.336
same,relative viability,[13]; first compound 0.4 µM,0.179
same,relative viability,[13]; first compound 1.265 µM,0.221
same,relative viability,[13]; first compound 4 µM,0.324
same,relative viability,[14]; first compound 0.04 µM,0.73
same,relative viability,[14]; first compound 0.1265 µM,0.81
same,relative viability,[14]; first compound 0.4 µM,0.784
same,relative viability,[14]; first compound 1.265 µM,0.81
same,relative viability,[14]; first compound 4 µM,1.41
same,relative viability,[15]; first compound 0.04 µM,0.986
same,relative viability,[15]; first compound 0.1265 µM,1.18
same,relative viability,[15]; first compound 0.4 µM,1.03
same,relative viability,[15]; first compound 1.265 µM,1.03
same,relative viability,[15]; first compound 4 µM,1.21
same,relative viability,[16]; first compound 0.04 µM,0.926
same,relative viability,[16]; first compound 0.1265 µM,0.832
same,relative viability,[16]; first compound 0.4 µM,0.689
same,relative viability,[16]; first compound 1.265 µM,1.18
same,relative viability,[16]; first compound 4 µM,1.14
same,relative viability,[17]; first compound 0.04 µM,0.977
same,relative viability,[17]; first compound 0.1265 µM,1.02
same,relative viability,[17]; first compound 0.4 µM,0.955
same,relative viability,[17]; first compound 1.265 µM,0.917
same,relative viability,[17]; first compound 4 µM,0.331
same,relative viability,[18]; first compound 0.04 µM,1.02
same,relative viability,[18]; first compound 0.1265 µM,1.09
same,relative viability,[18]; first compound 0.4 µM,0.991
same,relative viability,[18]; first compound 1.265 µM,1.07
same,relative viability,[18]; first compound 4 µM,1.19
same,relative viability,[19]; first compound 0.04 µM,1.01
same,relative viability,[19]; first compound 0.1265 µM,0.985
same,relative viability,[19]; first compound 0.4 µM,0.835
same,relative viability,[19]; first compound 1.265 µM,0.936
same,relative viability,[19]; first compound 4 µM,0.492
same,relative viability,[20]; first compound 0.04 µM,0.823
same,relative viability,[20]; first compound 0.1265 µM,0.897
same,relative viability,[20]; first compound 0.4 µM,0.849
same,relative viability,[20]; first compound 1.265 µM,0.864
same,relative viability,[20]; first compound 4 µM,0.539
same,relative viability,[21]; first compound 0.04 µM,0.711
same,relative viability,[21]; first compound 0.1265 µM,0.513
same,relative viability,[21]; first compound 0.4 µM,0.515
same,relative viability,[21]; first compound 1.265 µM,0.561
same,relative viability,[21]; first compound 4 µM,0.818
